For this test, the target named is T1, glucocerebrosidase (Homo sapiens, UniProt P04062).
T1 sequence (P04062 40-536): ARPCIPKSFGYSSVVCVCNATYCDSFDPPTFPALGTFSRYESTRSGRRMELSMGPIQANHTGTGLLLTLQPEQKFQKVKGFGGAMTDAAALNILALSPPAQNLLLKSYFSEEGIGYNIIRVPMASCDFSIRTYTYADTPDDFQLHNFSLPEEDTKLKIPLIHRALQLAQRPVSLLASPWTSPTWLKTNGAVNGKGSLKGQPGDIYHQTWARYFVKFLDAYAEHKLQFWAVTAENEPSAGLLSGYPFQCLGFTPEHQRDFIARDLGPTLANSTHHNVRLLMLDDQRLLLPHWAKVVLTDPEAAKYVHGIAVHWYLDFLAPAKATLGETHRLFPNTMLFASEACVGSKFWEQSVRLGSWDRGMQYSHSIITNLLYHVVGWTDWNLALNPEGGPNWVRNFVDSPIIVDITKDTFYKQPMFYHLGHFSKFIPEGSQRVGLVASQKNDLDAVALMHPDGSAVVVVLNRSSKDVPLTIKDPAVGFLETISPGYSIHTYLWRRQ
As to the kind of experiment: Glucocerebrosidase activity assay with blue substrate (4MU-Glc). In kind it is biochemical. The procedure: Example 2—Glucocerebrosidase Activity Assay with Blue Substrate
The compounds in DMSO solution 0.5 μL/well were transferred to a black 96-well plate (the final titration was 24 nM to 50 μM, 12 concentrations, 2× dilution). 33.5 μL enzyme solution (7.5 nM final concentration) was transferred to the wells. After 5 min of incubation at room temperature, the enzyme reaction was initiated by the addition of 33 μL/well blue substrate. Final concentration of the blue substrate (4MU-Glc) was 1.5 mM. The blue substrate reaction was terminated by the addition of 33 μL/well stop solution (1 M NaOH and 1 M glycine mixture, pH 10) after 30 min of incubation at 37° C. The fluorescence was then measured in the Biotek Synergy H1 multi-mode plate reader with Ex=365 nm and Em=440 nm.
Additional compounds were synthesized and tested for glucocerebrosidase modulatory activity as described in Example 1 and Example 2.

Where [1] appears, read: Table 1, 7.5 nM enzyme, 1.5 mM 4MU-Glc, 30 min at 37° C.
[2] abbreviates: Table 1, 7.5 nM enzyme, 1.5 mM 4MU-Glc, 30 min at 37° C., titration 24 nM to 50 μM.
Where [3] appears, read: Table 2, additional compounds, tested as described in Example 2.

The values below come from patent publication US12291533B2, “Substituted fused pyrimidine compounds and uses thereof” (Northwestern University, priority 2017, dated 2025).

As for `CCn1ncc2c(N(C)CCOc3ccc(CNC(=O)CCCCCNC(=O)OC(C)(C)C)cc3)nc(-c3cccnc3)nc21` [Compound 111], under setting [1], the Emax – broadly, the size of the effect at its maximum, as opposed to the concentration needed – came out at 675%. Besides, the half-maximal activity concentration (AC50) (commonly the concentration at which the activity in the assay is half-maximal) under setting [2] came to 0.5 µM. For `O=C(O)CCCCCCCN(CCOc1ccccc1)c1nc(-c2cccnc2)nc2ccccc12` [Compound 19] the same measures were 150% and 1.78 µM. For `CN(CCOc1ccccc1)c1nc(-c2cccnc2)nc2c1ncn2C` [Compound 92], in that order: 790% and 35.5 µM.

Turning to `CN(CCOc1ccccc1)c1nc(-c2cccnc2)nc2c1CCCC2` [Compound 58], the Emax under setting [1] amounted to 130%. The AC50 under setting [2] worked out at 1.41 µM. As for `CN(CCOc1ccccc1)c1nc(-c2cccnc2)nc2c1ccn2C` [Compound 72], the Emax under setting [1] was 927%. In addition, the AC50 under setting [2] was 6.31 µM. For `CN(CCOc1ccccc1)c1nc(-c2cccnc2)nc2cc(C(F)(F)F)ccc12` [Compound 44] the same measures were 180% and 4.12 µM.

As to `CN(CCOc1ccccc1)c1nc(-c2cncc(F)c2)nc2ncccc12` [Compound 69], the AC50 under setting [2] was 7.1 µM. The same measure, in the same setting: as for `COC(=O)Cc1cccc(OCCN(C)c2nc(-c3cccnc3)nc3ncccc23)c1` [Compound 94], the figure is 14.1 µM. For `CN(CCOc1ccccc1)c1nc(-c2cnc3ccccc3c2)nc2ccccc12` [Compound 145], under setting [3], the half-maximal activity concentration (AC50) was found to be 1.6 µM and the Emax was found to be 185%.

With `c1ccc(OCCOc2nc(-c3cccnc3)nc3ccccc23)cc1` [Compound 24], the Emax under setting [1] was 140%. For the same molecule, the AC50 under setting [2] is 3.16 µM. With `CCc1cncc(-c2nc(N(C)CCOc3ccccc3)c3ccccc3n2)c1` [Compound 144], under setting [3], the AC50 worked out at 3.16 µM and the Emax was 700%. On to `CCn1ncc2c(N(C)Cc3ccc4c(c3)OCO4)nc(-c3cccnc3)nc21` [Compound 108], for which the Emax under setting [1] came out at 400%. For the same molecule, the half-maximal activity concentration (AC50) under setting [2] amounted to 7.08 µM. For `CN(CCOc1ccccc1)c1nc(-c2ccnc3ccccc23)nc2ccccc12` [Compound 81] the same measures were 280% and 3.16 µM.

For the molecule `CN(CCOc1ccccc1)c1nc(-c2cccnc2F)nc2ccccc12` [Compound 34], under setting [1], the Emax turned out to be 160%. For the same molecule, under setting [2], the AC50 was determined as 1.12 µM. As for `CN(CCOc1ccccc1)c1cc(N2CCC(O)CC2)nc(-c2cccnc2)n1` [Compound 170], under setting [3], the AC50 came out at 28.2 µM and the Emax was 740%. Turning to `CN(CCOc1cccc(CC(=O)ON2C(=O)CCC2=O)c1)c1nc(-c2cccnc2)nc2c1cnn2C` [Compound 96], under setting [1], the Emax was 583%. The AC50 under setting [2] amounted to 7.94 µM. In the case of `CN(CCOc1ccccc1)c1cc(N2CCC(CO)CC2)nc(-c2cccnc2)n1` [Compound 174], under setting [3], the AC50 was found to be 14.1 µM and the Emax came to 625%. For `c1cncc(-c2nc(N3CCc4cccnc4C3)c3ccccc3n2)c1` [Compound 148], in that order: 35 µM and 285%. Take `CN(CCOc1ccccc1)c1nc(-c2cccnc2)nc2c1COC2` [Compound 73]: the Emax under setting [1] was determined as 330%. Also, the AC50 under setting [2] came to 5.62 µM. Regarding `CN(CCOc1ccccc1)c1cc(Cl)nc(-c2cccnc2)n1` [Compound 168], under setting [3], the AC50 came to 4 µM and the Emax came out at 360%. `Cn1ncc2c(NCC3CCc4ccccc4O3)nc(-c3cccnc3)nc21` (stereo not shown) [Compound 87]: the Emax under setting [1] worked out at 173%. The AC50 under setting [2] was 10 µM. For `CN(CCOc1ccccc1)c1nc(-c2cccnc2)nc2c(C(F)(F)F)cccc12` [Compound 43] the same measures were 400% and 1.81 µM. For `CN(CC1Cc2ccccc2O1)c1nc(-c2cccnc2)nc2ccccc12` (stereo not shown) [Compound 82], in that order: 501% and 1.12 µM. As for `CN(CCOc1ccccc1)c1nc(-c2cncc(C(F)(F)F)c2)nc2ccccc12` [Compound 37], the Emax under setting [1] worked out at 250%. Also, the AC50 under setting [2] is 1.65 µM. Take `c1ccc(O[C@@H]2CCN(c3nc(-c4cccnc4)nc4ccccc34)C2)cc1` [Compound 155]: under setting [3], the AC50 is 1.78 µM and the Emax worked out at 260%.

Take `CN(CCOc1ccc2[nH]ccc2c1)c1nc(-c2cccnc2)nc2ccccc12` [Compound 147]: under setting [3], the half-maximal activity concentration (AC50) came to 4.47 µM and the Emax was found to be 450%. With `CN(CCN(C)c1nc(-c2cccnc2)nc2ccccc12)c1ccccc1` [Compound 42], the Emax under setting [1] turned out to be 250%. In addition, the concentration at half-maximal activity (AC50) under setting [2] stood at 6.54 µM.

For the molecule `CN(Cc1cc2ccccc2o1)c1nc(-c2cccnc2)nc2c1cnn2C` [Compound 89], under setting [1], the Emax came out at 660%. In addition, the AC50 under setting [2] was determined as 4.47 µM.

As to `CN(C[C@H]1COc2ccccc2O1)c1nc(-c2cccnc2)nc2ncccc12` [Compound 11], the concentration at half-maximal activity (AC50) under setting [2] was 3.83 µM. In the case of `CN(c1nc(-c2cccnc2)nc2c1cnn2C)C1CCCN(c2ccccc2)C1` (stereo not shown) [Compound 88], the Emax under setting [1] came out at 142%. For the same molecule, the half-maximal activity concentration (AC50) under setting [2] was determined as 5.01 µM. For `CCCn1ncc2c(N(C)CCOc3ccccc3)nc(-c3cccnc3)nc21` [Compound 187], under setting [3], the half-maximal activity concentration (AC50) is 0.8 µM and the Emax came out at 325%. For `Cc1cc(-c2nc(N(C)CCOc3ccccc3)c3ccccc3n2)ccn1` [Compound 169] the same measures were 15.8 µM and 191%. For `CN(CCOc1ccc(C(=O)O)cc1)c1nc(-c2cccnc2)nc2ccccc12` [Compound 79], under setting [1], the Emax came out at 252%. Further, the AC50 under setting [2] was found to be 12.6 µM. As for `CN(CCOc1ccccc1)c1nc(-c2cccnc2)nc2c1SCC2` [Compound 68], the Emax under setting [1] came out at 327%. For the same molecule, under setting [2], the AC50 worked out at 12.6 µM. For `CN(CCOc1ccccc1)c1nc(-c2cccnc2)nc2c1cnn2C` [Compound 78], in that order: 425% and 1.56 µM.

For `COC(=O)Cc1cccc(OCCN(C)c2nc(-c3cccnc3)nc3ccccc23)c1` [Compound 95], the Emax under setting [1] came out at 721%. Further, the AC50 under setting [2] was determined as 4.47 µM.

In the case of `c1ccc(OC2CCN(c3nc(-c4cccnc4)nc4ccccc34)CC2)cc1` [Compound 166], under setting [3], the AC50 came to 6.31 µM and the Emax amounted to 276%.

Regarding `CN(CCc1c[nH]c2ccccc12)c1nc(-c2cccnc2)nc2ccccc12` [Compound 30], under setting [1], the Emax is 250%. In addition, under setting [2], the AC50 amounted to 5.01 µM. Consider `CCCCCCCCCN(C)c1nc(-c2cccnc2)nc2ccccc12` [Compound 179], for which, under setting [3], the AC50 stood at 6.31 µM and the Emax amounted to 118%. Take `CN(CCOC(C)(C)C)c1nc(-c2cccnc2)nc2ccccc12` [Compound 29]: under setting [1], the maximum response (Emax) came to 180%. Besides, the AC50 under setting [2] came out at 39.8 µM.

As to `CCCN(CCOc1ccccc1)c1nc(-c2cccnc2)nc2ccccc12` [Compound 15], the Emax under setting [1] came out at 130%. Further, the AC50 under setting [2] amounted to 3.12 µM. As for `CN(C)c1ccc2c(-c3ccc(C(=O)NCCOCCOCCOCCOCCC(=O)NCCCCCC(=O)Nc4ccc(-c5nc(N(C)CCOc6ccccc6)c6ccccc6n5)cc4)cc3C(=O)[O-])c3ccc(=[N+](C)C)cc-3oc2c1` [Compound 135], under setting [3], the AC50 was determined as 1.67 µM. On to `CN(CCOc1ccccc1)c1nc(-c2ccc(F)nc2)nc2ccccc12` [Compound 36], for which the Emax under setting [1] came to 220%. Besides, under setting [2], the half-maximal activity concentration (AC50) turned out to be 1.58 µM. As for `CCn1ncc2c(N3CC[C@@H](Oc4ccccc4)C3)nc(-c3cccnc3)nc21` [Compound 157], under setting [3], the AC50 was found to be 22.4 µM and the Emax was 580%.

As to `CN(CCN1CCc2ccccc2C1)c1nc(-c2cccnc2)nc2c1cnn2C` [Compound 101], the Emax under setting [1] was 197%. Further, under setting [2], the AC50 was 79.4 µM. With `CCn1ncc2c(N3CCC[C@@H](Oc4ccccc4)C3)nc(-c3cccnc3)nc21` [Compound 164], under setting [3], the AC50 worked out at 28.2 µM and the maximum response (Emax) was 425%. For `Cc1cccc(OCCN(C)c2nc(-c3cccnc3)nc3ccccc23)c1` [Compound 23], the Emax under setting [1] worked out at 500%. Besides, the AC50 under setting [2] stood at 3.55 µM.

Take `CN(CCOc1ccc(CN)cc1)c1nc(-c2cccnc2)nc2ccccc12` [Compound 53]: the Emax under setting [1] was 300%. Moreover, the AC50 under setting [2] worked out at 4.1 µM.

Consider `CN(CCOc1ccccc1)c1cc(N2CCC(O)CC2)nc(Cl)n1` [Compound 167], for which, under setting [3], the AC50 stood at 28.2 µM and the Emax turned out to be 250%. On to `Cn1ncc2c(N3CC[C@@H](Oc4ccccc4)C3)nc(-c3cccnc3)nc21` [Compound 100], for which, under setting [1], the Emax is 833%. Further, under setting [2], the AC50 is 5.62 µM. As to `CCn1ncc2c(N3CC[C@H](Oc4ccccc4)C3)nc(-c3cncc(Cl)c3)nc21` [Compound 160], under setting [3], the half-maximal activity concentration (AC50) came to 28.2 µM and the Emax was determined as 130%. As to `CN(CCOc1ccccc1)c1nc(-c2ccc(O)nc2)nc2ccccc12` [Compound 51], the Emax under setting [1] was 200%. Under setting [2], the half-maximal activity concentration (AC50) worked out at 8.17 µM.
